Like-named read-outs stand apart in the source and are kept apart here.
Assays:
[1] = system: AML cell lines; assay: Cell proliferation MTS assay, panel of AML cell lines; format: cell-based; conditions: Homo sapiens
Method: AML cell lines (5×10^3 cells/well) were seeded in 96-well plates and grown for 24 to 96 h in serum (10%)-containing medium in the presence or absence of inhibitors at the indicated concentrations. Proliferation was analyzed by means of an MTS assay using the CellTiter 96 Aqueous One Solution Cell Proliferation Assay (Promega, Madison, Wis., USA), according to the manufacturer's instructions. Data are mean with standard deviation from three independent experiments in technical triplicates. For the screening of 160 compounds from the UC library, the cell metabolic activity was assessed at 24 hours of treatment of MOLM-13 cells. Top 15 candidates were re-screened at 2 μM, and the cell metabolic activity was determined at 24 hours of treatment. In certain experiments, cell viability was determined by staining the cells with trypan blue at a 1/2 dilution and counting total number of viable cells upon treatment with UC-764864 or DMSO control. The cells were counted daily for 4 days using an automated cell counter (Countess II FL from Life Technologies). […] UC-764864 was added at the indicated concentrations and cells were incubated with drug for 3 days, at which point cell viability was measured by MTS according to manufacturer's instructions.

[2] = molecular target: T1, UBE2N (Homo sapiens, UniProt P61088); assay: Cellular thermal shift assay (CETSA) in MOLM-13 cells; format: binding; parameters: quantification of Ts, for endogenous UBE2N; endogenous in cells; host or cells: MOLM-13; conditions: MOLM-13, 1 hour, heat challenge at Tagg(75); read-out: EC50 of stabilization of UBE2N (CETSA)
T1 sequence (P61088 1-152): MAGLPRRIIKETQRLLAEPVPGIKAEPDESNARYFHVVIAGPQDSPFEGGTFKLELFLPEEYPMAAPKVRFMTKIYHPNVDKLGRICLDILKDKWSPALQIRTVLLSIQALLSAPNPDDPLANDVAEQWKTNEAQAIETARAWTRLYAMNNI
Method: CETSA was performed with MOLM-13 cells cultured in RPMI medium supplemented with 10% FBS. For an initial determination of the melting profile of UBE2N, fresh cell lysate prepared in non-denaturing buffer was dispensed into 96-well PCR plate in the above medium (approx. 8000 cells/well/50 μl), then was subjected to temperature gradient (37-60° C.) for 20 min. Subsequently, centrifugation was performed at 14,000 rpm to sediment the unstable protein content. Supernatant was collected and SDS-PAGE gel was run, and immuno-detection was performed for UBE2N using corresponding primary antibody. Band intensity was quantified on LI-COR C-Digit Blot Scanner, and subsequently Tagg(50) and Tagg(75) values were calculated for UBE2N. In a subsequent run, fresh lysates of MOLM-13 cells were treated at various doses with 4-fold dilutions (10, 2.5, 0.62, 0.15, 0.04, 0.01 and 0.002 .tM) of compounds UC-764864 and UC-764865 together with DMSO control, for 1 hour. Samples were then subjected to heat challenge at Tagg(75) for 20 min, and unstable protein was removed by centrifugation step. Following an immuno-blotting step, bands of remaining stable UBE2N were quantified, normalized to loading control and plotted using GraphPad Prism software. EC50 values of engagement for both compounds with UBE2N were subsequently calculated.

[3] = Microsomal stability (human liver microsomes); format: in vitro ADME
[4] = Plasma stability; format: in vitro ADME; parameters: half-life: dose or concentration left out as unconfirmed; conditions: C57/Bl6 plasma, concentration 1 (mM), K2EDTA; for half-life: mouse, read-out: Plasma Stability T ½
[5] = system: MOLM-13 cells; assay: MTS assay of MOLM-13 cells overexpressing UBE2N wild type or UBE2N C87S; format: cell-based, human
From the text: For knockdown studies, UBE2N shRNA template oligonucleotides from the TRC shRNA library cloned into the pLKO.1 TRC cloning vector (Addgene: #10878) and pLKO.1 TRC cloning vector (Table 3). The puromycin gene in pLKO.1 was replaced with GFP. pLKO.1 TRC control was used as non-silencing control (Addgene: #10879). For production of lentiviral particles, lentiviral shRNA expression constructs were transfected together with packaging vectors into 293T producer cells using TransIT transfection reagent (Mirus, MIR 2306), supernatants were harvested after 48 and 72 hours, and concentrated by ultracentrifugation. […] UBE2N knockdown efficiency was determined by quantitative real time PCR (qRT-PCR) and western blot and quantified as described elsewhere. […] Levels of overexpression of UBE2N were determined by western blot.
AML cell lines (5×10^3 cells/well) were seeded in 96-well plates and grown for 24 to 96 h in serum (10%)-containing medium in the presence or absence of inhibitors at the indicated concentrations. Proliferation was analyzed by means of an MTS assay using the CellTiter 96 Aqueous One Solution Cell Proliferation Assay (Promega, Madison, Wis., USA), according to the manufacturer's instructions. […] For the screening of 160 compounds from the UC library, the cell metabolic activity was assessed at 24 hours of treatment of MOLM-13 cells. […]

[6] = system: THP1-Blue NF-κB reporter cells; assay: NF-κB activation assay; format: cell-based, human; conditions: for UBE2N-dependent activation of NF-κB, reporter screen: top 14 small molecules
Method: THP1-Blue NF-κB reporter cells (Invivogen) were diluted to 100,000 cells/mL and stimulated with 1 μg/mL IL1β, 100 ng/ml Pam3CSK4 or 1 μ/m LPS. The cells were subsequently seeded into a 96 well plate at 20,000 cells per well (200 μl) and introduced to drugs in an increasing concentration. The plates were incubated at 37 C, 5% CO2 for 24 hours. The following day, QuantiBlue Reagent was warmed to 37 C in a water bath and 180 μl was added to each well of a separate, clean 96 well plate. The incubated cells were spun down, and the supernatant was taken for the assay. To perform the assay, 20 μl of supernatant from each well was pipetted into the respective 180 μl QuantiBlue Reagent well, in triplicate. The reaction was mixed and incubated for 1 to 4 hours, when a color gradient could be seen. The absorbance was read at 630 nm for a final readout.

[7] = system: patient-derived AML cells; assay: Patient-derived xenografts (PDX) in NSGS mice; format: in vivo

SMILES | IC50 ([1]; HL-60, NOMO-1, Kasumi-1, MV4-11, MDSL, read-out: IC50, cell lines with intermediate sensitivity) [µM] | IC50 ([1]; MOLM-14, MOLM-13, THP-1, SKM-1, read-out: IC50, highly sensitive cell lines) [µM] | EC50 [2] [µM] | metabolism in human liver microsomes [3] | Plasma Stability % Remaning at T60 [4] [%] | half-life [4] [min] | viability of MOLM-13 cells expressing UBE2N(C87S) [5] | viability of MOLM-13 cells expressing wild-type UBE2N [5] | UBE2N-mediated NF-κB activity downstream of IL1R, TLR2, TLR4 ([6]; increasing concentrations, concentration dependent, equal potency) | UBE2N-dependent activation of NF-κB, reporter screen [6] | leukemic burden of mice xenografted with UBE2N-resistant sample AML-JM60 ([7]; 25 mg/kg IP) | total and ubiquitinated UBE2N in BM cells of mice xenografted with AML-JM40 ([7]; 25 mg/kg, vs vehicle, immunoblot) | reduction in leukemic burden of UBE2N-sensitive AML cells in the BM ([7]; JM7, JM40, JM26, 25 mg/kg IP, P=0.008)
CCc1ccc(C(=O)C=CSc2nc3ccc(C)cc3[nH]2)cc1 [UC-764864, 1-(4-ethylphenyl)-3-[(6-methyl-1H-benzimidazol-2-yl)sulfanyl]prop-2-en-1-one] | 4.3 to 6.7 | 0.02 to 2.5 | 2.2 | readily metabolized | 21.4 | 31.8 | did not affect | significantly suppressed | inhibited UBE2N-mediated NF-κB activity | inhibition of UBE2N-dependent signaling | – | – | –
COc1ccc(C(=O)C=CSc2nc3ccc(C)cc3[nH]2)cc1 [UC-764865, 1-(4-methoxyphenyl)-3-[(6-methyl-1H-benzimidazol-2-yl)sulfanyl]prop-2-en-1-one] | – | – | 0.42 | – | 39.6 | 53.6 | – | – | – | inhibition of UBE2N-dependent signaling | did not decrease | reduced | 30-60%

From patent publication US20220267753A1, “RATIONAL THERAPEUTIC TARGETING OF ONCOGENIC IMMUNE SIGNALING STATES IN MYELOID MALIGNANCIES VIA THE UBIQUITIN CONJUGATING ENZYME UBE2N” (CHILDREN'S HOSPITAL MEDICAL CENTER, priority 2019, published 2022)
